Read-outs that look alike come from different tables or passages of the source.
Target: Human Factor D (Homo sapiens (Human), UniProt P00746)
Test: Human Factor D Assay
Assay type: biochemical
How it was run: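 Serum-purified human Factor D (80 nM final) was preincubated with test compound at various concentrations for 5 min at room temperature in 50 mM Tris, 1M NaCl, pH 7.5. Z-L-Lys-SBzl and DTNB were then added at 100 μM each. IC50 came from nonlinear regression of reaction rates versus compound concentration.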

[1] = Human Factor D 80 nM, substrate Z-L-Lys-SBzl, read-out: IC50

Sequence of Human Factor D (P00746 26-253): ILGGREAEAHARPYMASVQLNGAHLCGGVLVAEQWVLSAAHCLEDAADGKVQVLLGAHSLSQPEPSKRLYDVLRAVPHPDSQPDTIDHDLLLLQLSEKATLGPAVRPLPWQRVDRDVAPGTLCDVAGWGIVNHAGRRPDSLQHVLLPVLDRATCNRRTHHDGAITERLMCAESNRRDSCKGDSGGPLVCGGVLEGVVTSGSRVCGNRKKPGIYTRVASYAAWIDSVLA

Row | SMILES | IC50 [1] [µM] | IC50 [µM]
1 | Cc1cc(NC(=O)[C@@H]2C[C@@H](F)CN2C(=O)Cn2nc(C(N)=O)c3cc(-c4ccnnc4)ccc32)n2nc(C(F)(F)F)nc2n1 [Compound 113, 1-(2-((2S,4R)-4-fluoro-2-(5-methyl-2-(trifluoromethyl)-[1,2,4]triazolo[1,5-a]pyrimidin-7-ylcarbamoyl)pyrrolidin-1-yl)-2-oxoethyl)-5-(pyridazin-4-yl)-1H-indazole-3-carboxamide] | > 10 | –
2 | NC(=O)c1nn(CC(=O)N2C[C@H](F)C[C@H]2C(=O)Nc2nnc(-c3ccccc3Cl)s2)c2ccc(-c3ccnnc3)cc12 [Compound 115, 1-(2-((2S,4R)-2-(5-(2-chlorophenyl)-1,3,4-thiadiazol-2-ylcarbamoyl)-4-fluoropyrrolidin-1-yl)-2-oxoethyl)-5-(pyridazin-4-yl)-1H-indazole-3-carboxamide] | > 10 | –
3 | CC(=O)c1cn(CC(=O)N2C[C@H](F)C[C@H]2C(=O)Nc2nnc(-c3ccc(Cl)c(Cl)c3)s2)c2ccc(-c3ccnnc3)cc12 [Compound 117, (2S,4R)-1-(2-(3-acetyl-5-(pyridazin-4-yl)-1H-indol-1-yl)acetyl)-N-(5-(3,4-dichlorophenyl)-1,3,4-thiadiazol-2-yl)-4-fluoropyrrolidine-2-carboxamide] | > 10 | –
4 | CC(=O)Nc1ncc(-c2ccc3c(c2)c(C(C)=O)cn3CC(=O)N2C[C@H](F)C[C@H]2C(=O)Nc2cccc(Br)n2)cn1 [Compound 118, (2S,4R)-1-(2-(5-(2-acetamidopyrimidin-5-yl)-3-acetyl-1H-indol-1-yl)acetyl)-N-(6-bromopyridin-2-yl)-4-fluoropyrrolidine-2-carboxamide] | < 1 | –
5 | CC(=O)c1cn(CC(=O)N2C[C@H](F)C[C@H]2C(=O)Nc2cccc(Br)n2)c2ccc(-c3cccc(Cl)c3)cc12 [Compound 119, (2S,4R)-1-(2-(3-acetyl-5-(3-chlorophenyl)-1H-indol-1-yl)acetyl)-N-(6-bromopyridin-2-yl)-4-fluoropyrrolidine-2-carboxamide] | < 1 | –
6 | CC(=O)c1cn(CC(=O)N2C[C@H](F)C[C@H]2C(=O)Nc2cccc(Br)n2)c2ccc(-c3ccc(C)nc3)cc12 [Compound 120, (2S,4R)-1-(2-(3-acetyl-5-(6-methylpyridin-3-yl)-1H-indol-1-yl)acetyl)-N-(6-bromopyridin-2-yl)-4-fluoropyrrolidine-2-carboxamide] | < 1 | –
7 | CC(=O)c1cn(CC(=O)N2C[C@H](F)C[C@H]2C(=O)Nc2cccc(-c3ccccc3Cl)c2F)c2ccc(-c3cnnc(C)c3)cc12 [Compound 121, (2S,4R)-1-(2-(3-acetyl-5-(6-methylpyridazin-4-yl)-1H-indol-1-yl)acetyl)-N-(2′-chloro-2-fluorobiphenyl-3-yl)-4-fluoropyrrolidine-2-carboxamide] | < 1 | –
8 | COc1cc(C)cc2c1OCCC2NC(=O)[C@@H]1C[C@@H](F)CN1C(=O)Cn1nc(C(N)=O)c2cc(-c3ccnnc3)ccc21 (stereo partly drawn) [Compound 122, 1-(2-((2S,4R)-4-fluoro-2-(8-methoxy-6-methylchroman-4-ylcarbamoyl)pyrrolidin-1-yl)-2-oxoethyl)-5-(pyridazin-4-yl)-1H-indazole-3-carboxamide] | > 10 | –
9 | COc1cc(C)cc2c1OCCC2NC(=O)[C@@H]1C[C@@H](F)CN1C(=O)Cn1cc(C(C)=O)c2cc(-c3ccnnc3)ccc21 (stereo partly drawn) [Compound 123, (2S,4R)-1-(2-(3-acetyl-5-(pyridazin-4-yl)-1H-indol-1-yl)acetyl)-4-fluoro-N-(8-methoxy-6-methylchroman-4-yl)pyrrolidine-2-carboxamide] | > 10 | –
10 | CC(=O)c1cn(CC(=O)N2C[C@H](F)C[C@H]2C(=O)NC2CCCN(c3cc(C)ccc3F)C2=O)c2ccc(-c3ccnnc3)cc12 (stereo partly drawn) [Compound 125, (2S,4R)-1-(2-(3-acetyl-5-(pyridazin-4-yl)-1H-indol-1-yl)acetyl)-4-fluoro-N-(1-(2-fluoro-5-methylphenyl)-2-oxopiperidin-3-yl)pyrrolidine-2-carboxamide] | – | 1 to 10
11 | CC(=O)c1cn(CC(=O)N2C[C@H](F)C[C@H]2C(=O)Nc2cccc(Cl)c2C(F)(F)F)c2ccc(-c3ccnnc3)cc12 [Compound 126, (2S,4R)-1-(2-(3-acetyl-5-(pyridazin-4-yl)-1H-indol-1-yl)acetyl)-N-(3-chloro-2-(trifluoromethyl)phenyl)-4-fluoropyrrolidine-2-carboxamide] | > 10 | –
12 | CC(=O)c1cn(CC(=O)N2C[C@H](F)C[C@H]2C(=O)Nc2cncc(Br)n2)c2ccc(-c3ccnnc3)cc12 [Compound 127, (2S,4R)-1-(2-(3-acetyl-5-(pyridazin-4-yl)-1H-indol-1-yl)acetyl)-N-(6-bromopyrazin-2-yl)-4-fluoropyrrolidine-2-carboxamide] | < 1 | –
13 | NC(=O)c1nn(CC(=O)N2C[C@H](F)C[C@H]2C(=O)Nc2cncc(Br)n2)c2ccc(-c3ccnnc3)cc12 [Compound 128, 1-(2-((2S,4R)-2-(6-bromopyrazin-2-ylcarbamoyl)-4-fluoropyrrolidin-1-yl)-2-oxoethyl)-5-(pyridazin-4-yl)-1H-indazole-3-carboxamide] | < 1 | –
14 | NC(=O)c1nn(CC(=O)N2C[C@H](F)C[C@H]2C(=O)Nc2ccc3ccccc3c2)c2ccc(-c3ccnnc3)cc12 [Compound 131, 1-(2-((2S,4R)-4-fluoro-2-(naphthalen-2-ylcarbamoyl)pyrrolidin-1-yl)-2-oxoethyl)-5-(pyridazin-4-yl)-1H-indazole-3-carboxamide] | > 10 | –
15 | CC(=O)c1cn(CC(=O)N2[C@@H]3C[C@@H]3C[C@H]2C(=O)Nc2cccc(Br)n2)c2ccc(-c3cnc(C)nc3)cc12 [Compound 132, (1R,3S,5R)-2-(2-(3-acetyl-5-(2-methylpyrimidin-5-yl)-1H-indol-1-yl)acetyl)-N-(6-bromopyridin-2-yl)-2-azabicyclo[3.1.0] hexane-3-carboxamide] | < 1 | –
16 | CC(=O)c1cn(CC(=O)N2[C@@H]3C[C@@H]3C[C@H]2C(=O)Nc2cccc(-c3ccccc3Cl)c2F)c2ccc(-c3cnc(C)nc3)cc12 [Compound 133, (1R,3S,5R)-2-(2-(3-acetyl-5-(2-methylpyrimidin-5-yl)-1H-indol-1-yl)acetyl)-N-(2′-chloro-2-fluorobiphenyl-3-yl)-2-azabicyclo[3.1.0] hexane-3-carboxamide] | < 1 | –
17 | CC(=O)c1cn(CC(=O)N2[C@@H]3C[C@@H]3C[C@H]2C(=O)NCc2cccc(Cl)c2F)c2ccc(-c3cnc(C)nc3)cc12 [Compound 134, (1R,3S,5R)-2-(2-(3-acetyl-5-(2-methylpyrimidin-5-yl)-1H-indol-1-yl)acetyl)-N-(3-chloro-2-fluorobenzyl)-2-azabicyclo[3.1.0] hexane-3-carboxamide] | < 1 | –
18 | CC(=O)c1cn(CC(=O)N2C[C@H](F)C[C@H]2C(=O)NCc2cccc(Cl)c2F)c2ccc(-c3cnc(C)nc3)cc12 [Compound 135, (2S,4R)-1-(2-(3-acetyl-5-(2-methylpyrimidin-5-yl)-1H-indol-1-yl)acetyl)-N-(3-chloro-2-fluorobenzyl)-4-fluoropyrrolidine-2-carboxamide] | < 1 | –
19 | COc1ncc(-c2ccc3c(c2)c(C(C)=O)cn3CC(=O)N2C[C@H](F)C[C@H]2C(=O)NCc2cccc(Cl)c2F)cn1 [Compound 136, (2S,4R)-1-(2-(3-acetyl-5-(2-methoxypyrimidin-5-yl)-1H-indol-1-yl)acetyl)-N-(3-chloro-2-fluorobenzyl)-4-fluoropyrrolidine-2-carboxamide] | < 1 | –
20 | CC(=O)c1cn(CC(=O)N2C[C@H](F)C[C@H]2C(=O)Nc2cccc(Cl)n2)c2ccc(-c3cnc(C)nc3)cc12 [Compound 137, (2S,4R)-1-(2-(3-acetyl-5-(2-methylpyrimidin-5-yl)-1H-indol-1-yl)acetyl)-N-(6-chloropyridin-2-yl)-4-fluoropyrrolidine-2-carboxamide] | < 1 | –
21 | CC(=O)Nc1ncc(-c2ccc3c(c2)c(C(C)=O)cn3CC(=O)N2C[C@H](F)C[C@H]2C(=O)Nc2cccc(-c3ccccc3Cl)c2F)cn1 [Compound 138, (2S,4R)-1-(2-(5-(2-acetamidopyrimidin-5-yl)-3-acetyl-1H-indol-1-yl)acetyl)-N-(2′-chloro-2-fluorobiphenyl-3-yl)-4-fluoropyrrolidine-2-carboxamide] | < 1 | –
22 | NC(=O)c1nn(CC(=O)N2C[C@H](F)C[C@H]2C(=O)NCc2ccccn2)c2ccc(-c3ccnnc3)cc12 [Compound 139, 1-(2-((2S,4R)-4-fluoro-2-(pyridin-2-ylmethylcarbamoyl)pyrrolidin-1-yl)-2-oxoethyl)-5-(pyridazin-4-yl)-1H-indazole-3-carboxamide] | – | 1 to 10
23 | CC(=O)c1cn(CC(=O)N2C[C@H](F)C[C@H]2C(=O)NC2CCCN(c3cnn(C)c3)C2)c2ccc(-c3ccnnc3)cc12 (stereo partly drawn) [Compound 140, (2S,4R)-1-(2-(3-acetyl-5-(pyridazin-4-yl)-1H-indol-1-yl)acetyl)-4-fluoro-N-(1-(1-methyl-1H-pyrazol-4-yl)piperidin-3-yl)pyrrolidine-2-carboxamide] | – | 1 to 10
24 | Cn1cc(N2CCCC(NC(=O)[C@@H]3C[C@@H](F)CN3C(=O)Cn3nc(C(N)=O)c4cc(-c5ccnnc5)ccc43)C2)cn1 (stereo partly drawn) [Compound 141, 1-(2-((2S,4R)-4-fluoro-2-(1-(1-methyl-1H-pyrazol-4-yl)piperidin-3-ylcarbamoyl)pyrrolidin-1-yl)-2-oxoethyl)-5-(pyridazin-4-yl)-1H-indazole-3-carboxamide] | > 10 | –
25 | CC(=O)c1cn(CC(=O)N2C[C@H](F)C[C@H]2C(=O)N[C@@H]2CCC[C@H]2O)c2ccc(-c3ccnnc3)cc12 [Compound 143, (2S,4R)-1-(2-(3-acetyl-5-(pyridazin-4-yl)-1H-indol-1-yl)acetyl)-4-fluoro-N-((1R,2R)-2-hydroxycyclopentyl) pyrrolidine-2-carboxamide] | > 10 | –
26 | CC(=O)c1cn(CC(=O)N2C[C@H](F)C[C@H]2C(=O)Nc2cccc(O)n2)c2ccc(-c3ccnnc3)cc12 [Compound 144, (2S,4R)-1-(2-(3-acetyl-5-(pyridazin-4-yl)-1H-indol-1-yl)acetyl)-4-fluoro-N-(6-hydroxypyridin-2-yl)pyrrolidine-2-carboxamide] | > 10 | –

From US10287301B2 (Achillion Pharmaceuticals, Inc., priority 2015, dated 2019)
